Results: patent publication US20140038989A1, “TETRAHYDROPYRAZOLO [1,5-A] PYRIMIDINE AS ANTI-TUBERCULOSIS COMPOUNDS” (Glaxo Group Limited, priority 2011, published 2014)
≈ marks a conversion by molar mass, not a printed value.

System: Mycobacterium tuberculosis H37Rv
Experiment: Mycobacterium tuberculosis H37Rv Inhibition Assay (Whole Cell Assay)
Assay type: cell-based
Conditions: ATCC 25618 / H37Rv, H37Rv strain (ATCC25618), Middlebrook 7H9, six days at 37° C., resazurin fluorescence after 48 hours

CCc1ccc([C@H]2C[C@@H](C(F)(F)F)n3ncc(C(=O)NCc4ccc(F)cn4)c3N2)cc1 (relative stereo) [Example 69, Cis-5-(4-ethylphenyl)-N-((5-fluoropyridin-2-yl)methyl)-7-(trifluoromethyl)-4,5,6,7-tetrahydropyrazolo[1,5-a]pyrimidine-3-carboxamide] and CCc1ccc([C@H]2C[C@@H](C(F)(F)F)n3ncc(C(=O)NCc4ccccc4F)c3N2)cc1 (relative stereo) [Example 62, Cis-5-(4-ethylphenyl)-N-(2-fluorobenzyl)-7-(trifluoromethyl)-4,5,6,7-tetrahydropyrazolo[1,5-a]pyrimidine-3-carboxamide] cannot be ordered by MIC: no more than 1 µM for the first, no more than 1 µM for the second.

Cc1ccc([C@H]2C[C@@H](C(F)(F)F)n3ncc(C(=O)NCc4cc(F)cc(F)c4)c3N2)cc1 (relative stereo) [Example 30, Cis-N-(3,5-difluorobenzyl)-5-(p-tolyl)-7-(trifluoromethyl)-4,5,6,7-tetrahydropyrazolo[1,5-a]pyrimidine-3-carboxamide] and Cc1ccc([C@H]2C[C@@H](C(F)(F)F)n3ncc(C(=O)NCc4ccc(C)c(Cl)c4)c3N2)cc1 (relative stereo) [Example 29, Cis-N-(3-chloro-4-methylbenzyl)-5-(p-tolyl)-7-(trifluoromethyl)-4,5,6,7-tetrahydropyrazolo[1,5-a]pyrimidine-3-carboxamide] cannot be ordered by MIC: no more than 1 µM for the first, 1 to 2 µM (≈ 0.463 to 0.926 µg/mL) for the second.

CCc1ccc([C@H]2C[C@@H](C(F)(F)F)n3ncc(C(=O)NCc4ccc(C)c(F)c4)c3N2)cc1 (relative stereo) [Example 64, Cis-5-(4-ethylphenyl)-N-(3-fluoro-4-methylbenzyl)-7-(trifluoromethyl)-4,5,6,7-tetrahydropyrazolo[1,5-a]pyrimidine-3-carboxamide] and CCc1ccc([C@H]2C[C@@H](C(F)(F)F)n3ncc(C(=O)NCc4cccc(C)c4)c3N2)cc1 (relative stereo) [Example 3, Cis-5-(4-ethylphenyl)-N-(3-methylbenzyl)-7-(trifluoromethyl)-4,5,6,7-tetrahydropyrazolo[1,5-a]pyrimidine-3-carboxamide] cannot be ordered by MIC: no more than 1 µM for the first, no more than 1 µM for the second.

First: CCc1ccc([C@H]2C[C@@H](C(F)(F)F)n3ncc(C(=O)NCc4cccc(C(F)(F)F)c4)c3N2)cc1 (relative stereo) [Example 14, Cis-5-(4-ethylphenyl)-7-(trifluoromethyl)-N-{[3-(trifluoromethyl)phenyl]methyl}-4,5,6,7-tetrahydropyrazolo[1,5-a]pyrimidine-3-carboxamide]
Second: CCc1ccc([C@H]2C[C@@H](C(F)(F)F)n3ncc(C(=O)NCc4ccc(OC)cc4OC)c3N2)cc1 (relative stereo) [Example 46, Cis-N-(2,4-dimethoxybenzyl)-5-(4-ethylphenyl)-7-(trifluoromethyl)-4,5,6,7-tetrahydropyrazolo[1,5-a]pyrimidine-3-carboxamide]
The MIC of the first is lower: 1 to 2 µM (≈ 0.496 to 0.993 µg/mL) for the first, greater than 2 µM for the second.

Cc1ccc([C@H]2C[C@@H](C(F)(F)F)n3ncc(C(=O)NCc4ccc5c(c4)OCCO5)c3N2)cc1 (relative stereo) [Example 50, Cis-N-((2,3-dihydrobenzo[b][1,4]dioxin-6-yl)methyl)-5-(p-tolyl)-7-(trifluoromethyl)-4,5,6,7-tetrahydropyrazolo[1,5-a]pyrimidine-3-carboxamide] and COc1ccc(CNC(=O)c2cnn3c2NC(c2ccc(OC)cc2)CC3C(F)(F)F)cc1 (centres unmarked) [Example 54, N-(4-methoxybenzyl)-5-(4-methoxyphenyl)-7-(trifluoromethyl)-4,5,6,7-tetrahydropyrazolo[1,5-a]pyrimidine-3-carboxamide] cannot be ordered by MIC: greater than 2 µM for the first, greater than 2 µM for the second.

In the case of CCc1ccc([C@H]2C[C@@H](C(C)(C)C)n3ncc(C(=O)NCc4ccc(OC)cc4)c3N2)cc1 (relative stereo) [Example 35, Cis-7-(tert-butyl)-5-(4-ethylphenyl)-N-(4-methoxybenzyl)-4,5,6,7-tetrahydropyrazolo[1,5-a]pyrimidine-3-carboxamide], the MIC is reported as no more than 1 µM.
